US9084788B2, “Compositions and methods for treating and preventing dermatoses” (Asymmetric Therapeutics, LLC, priority 2002, dated 2015)

Experiments:
OPRT = biological target: T1, OPRT (Homo sapiens, UniProt P11172); settings: neutral pH; cited from earlier work
T1 sequence (P11172 1-480): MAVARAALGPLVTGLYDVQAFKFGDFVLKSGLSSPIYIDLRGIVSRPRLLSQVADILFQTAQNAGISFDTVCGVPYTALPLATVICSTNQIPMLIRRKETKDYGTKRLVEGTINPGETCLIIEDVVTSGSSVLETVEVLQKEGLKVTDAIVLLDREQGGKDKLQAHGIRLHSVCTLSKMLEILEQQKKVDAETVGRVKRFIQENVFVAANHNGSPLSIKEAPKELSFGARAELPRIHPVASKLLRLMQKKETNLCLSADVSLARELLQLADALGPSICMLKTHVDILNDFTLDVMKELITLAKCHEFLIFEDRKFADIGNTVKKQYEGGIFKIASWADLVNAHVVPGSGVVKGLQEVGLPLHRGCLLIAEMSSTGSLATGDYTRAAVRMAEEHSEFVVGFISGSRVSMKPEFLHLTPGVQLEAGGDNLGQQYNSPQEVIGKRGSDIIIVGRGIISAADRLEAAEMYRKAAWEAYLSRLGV

[1] = biological target: T2, dihydropyrimidine dehydrogenase (DPD) (Homo sapiens, UniProt Q12882); settings: in vivo; cited from earlier work
T2 construct: greater than 80% of an injected dose of 5-FU rapidly degraded by a single pathway
T2 sequence (Q12882 4-1025): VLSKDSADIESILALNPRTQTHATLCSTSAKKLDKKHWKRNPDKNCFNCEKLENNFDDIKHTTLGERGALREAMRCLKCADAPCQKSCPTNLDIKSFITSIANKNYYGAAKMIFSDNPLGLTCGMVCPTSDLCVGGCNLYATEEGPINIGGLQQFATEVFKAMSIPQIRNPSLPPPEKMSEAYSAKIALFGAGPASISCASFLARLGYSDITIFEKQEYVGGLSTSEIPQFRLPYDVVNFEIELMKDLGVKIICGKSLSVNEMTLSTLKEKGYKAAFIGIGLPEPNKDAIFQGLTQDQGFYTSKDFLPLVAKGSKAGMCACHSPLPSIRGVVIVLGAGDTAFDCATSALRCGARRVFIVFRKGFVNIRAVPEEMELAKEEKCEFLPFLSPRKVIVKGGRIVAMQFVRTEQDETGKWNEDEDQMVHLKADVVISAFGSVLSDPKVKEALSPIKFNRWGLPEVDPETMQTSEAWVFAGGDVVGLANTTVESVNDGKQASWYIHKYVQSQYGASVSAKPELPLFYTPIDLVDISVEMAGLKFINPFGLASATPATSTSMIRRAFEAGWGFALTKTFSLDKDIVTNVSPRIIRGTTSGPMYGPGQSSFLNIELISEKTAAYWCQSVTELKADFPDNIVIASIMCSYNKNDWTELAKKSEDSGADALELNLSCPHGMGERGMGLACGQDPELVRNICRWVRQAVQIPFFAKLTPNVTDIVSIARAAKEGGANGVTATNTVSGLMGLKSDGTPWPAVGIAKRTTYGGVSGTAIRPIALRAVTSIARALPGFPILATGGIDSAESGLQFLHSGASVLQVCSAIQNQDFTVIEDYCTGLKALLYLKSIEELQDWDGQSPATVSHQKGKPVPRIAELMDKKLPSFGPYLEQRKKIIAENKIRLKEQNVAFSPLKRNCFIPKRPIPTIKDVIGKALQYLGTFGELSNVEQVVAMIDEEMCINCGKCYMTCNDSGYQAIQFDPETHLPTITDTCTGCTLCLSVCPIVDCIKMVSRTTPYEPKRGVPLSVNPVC

[2] = biological target: T3, human dihydrouracil dehydrogenase (DPD) (Homo sapiens, UniProt Q12882); settings: Naguib et al. 1985; cited from earlier work
T3 sequence (Q12882 4-1025): T2 sequence (Q12882 4-1025)

[3] = tested on: patients (Hand and Foot syndrome); test: Ten patients treated one to six months, prevention of Hand and Foot syndrome; assay type: in vivo, human
Description: The calculations are based on topical application of 1 g of cream to the hands and 1 g to the feet twice a day, totaling 4 g. […] A volume of distribution (Vd) of 50 L is assumed.

[4] = tested on: patients (hand-foot syndrome); settings: in vivo; cited from earlier work
[5] = tested on: Marker tumor (metastatic breast cancer); test: Marker tumor size in the metastatic breast cancer patient on Xeloda and Taxotere; assay type: in vivo, human; settings: seen prior to course 5, on lower dose Xeloda (1000 mg/m^2)
Description: They had refused mastectomy and had previously failed adriamycin and cytoxan, weekly taxol, and weekly navelbine. […] FIGS. 3A, 3B and 3C illustrate the incidence of Hand and Foot syndrome in patients treated with Xeloda®.

Q: Which “OPRT preference for 5-FU over uracil” value (OPRT) does the source give for O=c1[nH]cc(F)c(=O)[nH]1 [5-FU, 5-fluorouracil] here?
A: The value was “about 50 times”.

Q: And the “share of an injected dose rapidly degraded by the DPD pathway” value [1]?
A: Its value is “greater than 80%”.

Q: And the “substrate quality for DPD compared with uracil” value [2]?
A: The value was “better substrate”.

Q: With O=C(O)c1cc(=O)[nH]c(=O)[nH]1 [Orotate, orotate] as the compound, how does the “Km for OPRT, lower than that of 5-FU” value (OPRT) read?
A: The value was about 50 fold.

Q: For O=c1cc[nH]c(=O)[nH]1 [Uracil, uracil], which toxicity [3] is on record?
A: Its toxicity is “no reports of toxicity”.

Q: And the “prevention of Hand and Foot syndrome” value ([3]; 1% cream)?
A: The value was “complete efficacy”.

Q: Which “frequency of hand-foot syndrome during treatment” value [4] does the source give for CCCCCOC(=O)Nc1nc(=O)n([C@@H]2O[C@H](C)[C@@H](O)[C@H]2O)cc1F [Xeloda, capecitabine] here?
A: The value was “common”.

Q: What about the “patients with Grade II-III hand foot toxicity” value [4] of the same compound?
A: Its value is 10-50%.

Q: And the “Marker tumor course (remark)” value [5]?
A: The value was “progression”.
